Assay results: article PMC5564600 (Oncotarget, 2017)
Where two headings read alike, the source gives them in different places.

Columns and labels:
Assay in all cases: biochemical
Format in all cases: binding
panel of 442 kinases [1] = biological target: T1, panel of 442 kinases (Homo sapiens, UniProt O94768); conditions: DRAK2; for remaining activity at 1 µM: read-out: % of control at 1 µM
T1 construct: purchased Ambit Biosciences (scanMAXX KINOMEscan)
T1 sequence (O94768 1-372): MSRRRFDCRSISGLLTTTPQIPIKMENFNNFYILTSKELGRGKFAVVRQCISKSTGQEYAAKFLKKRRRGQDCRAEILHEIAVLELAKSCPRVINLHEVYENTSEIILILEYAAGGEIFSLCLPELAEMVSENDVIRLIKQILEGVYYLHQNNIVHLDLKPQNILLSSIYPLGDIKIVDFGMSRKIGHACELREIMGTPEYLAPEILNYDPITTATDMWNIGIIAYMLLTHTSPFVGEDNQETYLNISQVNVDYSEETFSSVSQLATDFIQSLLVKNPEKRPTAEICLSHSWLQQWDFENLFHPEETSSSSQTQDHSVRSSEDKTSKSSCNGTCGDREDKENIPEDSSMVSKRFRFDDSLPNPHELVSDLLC

panel of 442 kinases [2] = biological target: T2, panel of 442 kinases (Homo sapiens, UniProt P29320); conditions: EPHA3; for remaining activity at 1 µM: read-out: % of control at 1 µM
T2 construct: purchased Ambit Biosciences (scanMAXX KINOMEscan)
T2 sequence (P29320 21-983): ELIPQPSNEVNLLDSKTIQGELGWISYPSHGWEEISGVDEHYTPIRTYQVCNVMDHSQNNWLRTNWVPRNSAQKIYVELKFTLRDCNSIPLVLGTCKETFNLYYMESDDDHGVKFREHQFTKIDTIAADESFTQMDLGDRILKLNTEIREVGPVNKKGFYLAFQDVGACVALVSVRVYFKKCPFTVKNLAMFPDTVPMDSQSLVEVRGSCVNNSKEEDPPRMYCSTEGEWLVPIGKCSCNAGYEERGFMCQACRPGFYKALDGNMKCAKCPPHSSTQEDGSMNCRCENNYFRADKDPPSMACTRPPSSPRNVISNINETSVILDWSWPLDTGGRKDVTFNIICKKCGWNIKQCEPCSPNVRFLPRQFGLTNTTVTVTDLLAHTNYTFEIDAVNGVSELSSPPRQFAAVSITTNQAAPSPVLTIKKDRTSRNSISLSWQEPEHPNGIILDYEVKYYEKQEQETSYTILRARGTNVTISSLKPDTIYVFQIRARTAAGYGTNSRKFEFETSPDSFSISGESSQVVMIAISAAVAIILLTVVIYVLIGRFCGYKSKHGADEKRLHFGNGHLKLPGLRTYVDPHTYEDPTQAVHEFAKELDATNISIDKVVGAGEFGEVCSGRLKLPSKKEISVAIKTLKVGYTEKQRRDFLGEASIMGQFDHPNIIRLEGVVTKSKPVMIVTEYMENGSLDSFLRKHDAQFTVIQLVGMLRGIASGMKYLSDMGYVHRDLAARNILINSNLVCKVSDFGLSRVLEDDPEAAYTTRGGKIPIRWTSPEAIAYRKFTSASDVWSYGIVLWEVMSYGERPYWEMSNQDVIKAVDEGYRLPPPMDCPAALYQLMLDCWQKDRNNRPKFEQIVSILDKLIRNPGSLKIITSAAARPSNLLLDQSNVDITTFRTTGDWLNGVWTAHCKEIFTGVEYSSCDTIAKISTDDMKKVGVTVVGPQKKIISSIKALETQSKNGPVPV

panel of 442 kinases [3] = biological target: T3, panel of 442 kinases (Homo sapiens, UniProt Q16659); conditions: ERK3; for remaining activity at 1 µM: read-out: % of control at 1 µM
T3 construct: purchased Ambit Biosciences (scanMAXX KINOMEscan)

panel of 442 kinases [4] = biological target: T4, panel of 442 kinases (Homo sapiens, UniProt P54646); conditions: AMPK-alpha2; for remaining activity at 1 µM: read-out: % of control at 1 µM
T4 construct: purchased Ambit Biosciences (scanMAXX KINOMEscan)

panel of 442 kinases [5] = biological target: T5, panel of 442 kinases (Homo sapiens, UniProt O00506); conditions: kinase YSK1; for remaining activity at 1 µM: read-out: YSK1 (% of control at 1 µM)
T5 construct: purchased Ambit Biosciences (scanMAXX KINOMEscan)

panel of 442 kinases [6] = biological target: T6, panel of 442 kinases (Homo sapiens, UniProt Q9BXA7); conditions: kinase TSSK1B; for remaining activity at 1 µM: read-out: TSSK1B (% of control at 1 µM)
T6 construct: purchased Ambit Biosciences (scanMAXX KINOMEscan)
T6 sequence (Q9BXA7 1-367): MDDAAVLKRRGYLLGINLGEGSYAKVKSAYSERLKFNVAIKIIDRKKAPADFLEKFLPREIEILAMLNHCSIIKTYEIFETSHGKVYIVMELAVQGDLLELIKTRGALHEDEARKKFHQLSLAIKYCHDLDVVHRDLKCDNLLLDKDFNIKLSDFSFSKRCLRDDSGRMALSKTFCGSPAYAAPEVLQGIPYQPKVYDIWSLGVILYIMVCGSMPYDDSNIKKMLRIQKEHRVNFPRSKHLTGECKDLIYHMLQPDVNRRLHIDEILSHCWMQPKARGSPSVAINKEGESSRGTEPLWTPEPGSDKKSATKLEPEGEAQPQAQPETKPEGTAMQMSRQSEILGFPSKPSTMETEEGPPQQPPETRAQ

panel of 442 kinases [7] = biological target: T7, panel of 442 kinases (Homo sapiens, UniProt Q8TBX8); conditions: kinase PIP5K2C; for remaining activity at 1 µM: read-out: % of control at 1 µM
T7 construct: purchased Ambit Biosciences (scanMAXX KINOMEscan)
T7 sequence (Q8TBX8 1-421): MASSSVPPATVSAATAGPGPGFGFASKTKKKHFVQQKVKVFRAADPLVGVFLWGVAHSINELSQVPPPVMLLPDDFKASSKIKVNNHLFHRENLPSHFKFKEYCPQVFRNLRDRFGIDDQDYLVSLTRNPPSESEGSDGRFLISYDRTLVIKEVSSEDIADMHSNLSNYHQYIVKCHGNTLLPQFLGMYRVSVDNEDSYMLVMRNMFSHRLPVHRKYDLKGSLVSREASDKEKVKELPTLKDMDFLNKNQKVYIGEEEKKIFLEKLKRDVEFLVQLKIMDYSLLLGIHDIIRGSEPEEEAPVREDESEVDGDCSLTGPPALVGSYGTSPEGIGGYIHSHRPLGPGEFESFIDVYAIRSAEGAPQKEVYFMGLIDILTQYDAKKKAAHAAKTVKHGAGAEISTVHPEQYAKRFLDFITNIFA

panel of 442 kinases [8] = biological target: T8, panel of 442 kinases (Homo sapiens, UniProt P11802); conditions: for remaining activity at 1 µM: read-out: % of control at 1 µM; for remaining activity at 10 µM: read-out: % of control at 10 µM
T8 construct: purchased Ambit Biosciences (scanMAXX KINOMEscan)

panel of 442 kinases [9] = biological target: T9, panel of 442 kinases (Homo sapiens, UniProt P09769); conditions: FGR; for remaining activity at 1 µM: read-out: % of control at 1 µM
T9 construct: purchased Ambit Biosciences (scanMAXX KINOMEscan)

panel of 442 kinases [10] = biological target: T10, panel of 442 kinases (Homo sapiens, UniProt P07333); conditions: CSF1R; for remaining activity at 1 µM: read-out: % of control at 1 µM
T10 construct: purchased Ambit Biosciences (scanMAXX KINOMEscan)

[11] = 10 µM, read-out: % of control at 10 µM

T4 sequence (P54646 whole entry): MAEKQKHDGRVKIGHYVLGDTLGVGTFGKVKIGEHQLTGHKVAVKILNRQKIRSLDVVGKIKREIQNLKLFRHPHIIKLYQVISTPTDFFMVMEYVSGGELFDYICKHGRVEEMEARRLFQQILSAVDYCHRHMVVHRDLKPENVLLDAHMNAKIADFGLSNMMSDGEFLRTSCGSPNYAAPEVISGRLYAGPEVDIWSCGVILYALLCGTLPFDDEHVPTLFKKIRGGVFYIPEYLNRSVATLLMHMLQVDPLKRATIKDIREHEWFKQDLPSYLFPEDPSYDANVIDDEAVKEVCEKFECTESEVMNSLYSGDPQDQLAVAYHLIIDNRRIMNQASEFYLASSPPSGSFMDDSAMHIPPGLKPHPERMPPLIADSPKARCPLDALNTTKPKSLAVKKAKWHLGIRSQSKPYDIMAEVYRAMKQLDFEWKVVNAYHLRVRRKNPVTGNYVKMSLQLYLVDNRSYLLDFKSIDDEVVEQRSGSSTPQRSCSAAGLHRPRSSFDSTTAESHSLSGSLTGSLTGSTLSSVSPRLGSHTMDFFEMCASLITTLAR
T8 sequence (P11802 whole entry): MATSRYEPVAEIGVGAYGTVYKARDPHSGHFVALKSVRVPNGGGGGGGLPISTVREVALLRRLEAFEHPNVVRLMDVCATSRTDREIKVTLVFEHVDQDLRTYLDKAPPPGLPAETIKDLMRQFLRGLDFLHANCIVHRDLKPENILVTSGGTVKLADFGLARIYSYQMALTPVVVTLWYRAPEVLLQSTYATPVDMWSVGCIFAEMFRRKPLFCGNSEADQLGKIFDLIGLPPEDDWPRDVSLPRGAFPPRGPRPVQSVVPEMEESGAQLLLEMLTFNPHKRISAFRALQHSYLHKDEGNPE
T3 sequence (Q16659 whole entry): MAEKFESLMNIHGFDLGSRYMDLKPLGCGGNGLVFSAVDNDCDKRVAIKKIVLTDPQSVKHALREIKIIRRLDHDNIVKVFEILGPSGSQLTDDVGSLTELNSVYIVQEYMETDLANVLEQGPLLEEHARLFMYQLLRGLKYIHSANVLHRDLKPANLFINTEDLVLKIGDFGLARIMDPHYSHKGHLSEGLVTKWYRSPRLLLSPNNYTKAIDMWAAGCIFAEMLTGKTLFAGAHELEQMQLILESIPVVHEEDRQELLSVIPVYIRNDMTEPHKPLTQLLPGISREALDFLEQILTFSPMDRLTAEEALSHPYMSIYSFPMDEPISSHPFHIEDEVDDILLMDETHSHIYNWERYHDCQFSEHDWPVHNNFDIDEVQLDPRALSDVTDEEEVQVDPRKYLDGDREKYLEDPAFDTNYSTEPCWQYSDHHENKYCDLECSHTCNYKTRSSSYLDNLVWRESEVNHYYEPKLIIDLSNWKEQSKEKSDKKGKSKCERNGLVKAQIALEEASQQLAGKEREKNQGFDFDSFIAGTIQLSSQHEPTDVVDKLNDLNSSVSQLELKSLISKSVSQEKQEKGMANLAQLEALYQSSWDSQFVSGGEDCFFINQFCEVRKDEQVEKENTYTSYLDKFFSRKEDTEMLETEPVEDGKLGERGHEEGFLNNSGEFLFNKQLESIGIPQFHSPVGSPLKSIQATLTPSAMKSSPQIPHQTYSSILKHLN
T10 sequence (P07333 20-972): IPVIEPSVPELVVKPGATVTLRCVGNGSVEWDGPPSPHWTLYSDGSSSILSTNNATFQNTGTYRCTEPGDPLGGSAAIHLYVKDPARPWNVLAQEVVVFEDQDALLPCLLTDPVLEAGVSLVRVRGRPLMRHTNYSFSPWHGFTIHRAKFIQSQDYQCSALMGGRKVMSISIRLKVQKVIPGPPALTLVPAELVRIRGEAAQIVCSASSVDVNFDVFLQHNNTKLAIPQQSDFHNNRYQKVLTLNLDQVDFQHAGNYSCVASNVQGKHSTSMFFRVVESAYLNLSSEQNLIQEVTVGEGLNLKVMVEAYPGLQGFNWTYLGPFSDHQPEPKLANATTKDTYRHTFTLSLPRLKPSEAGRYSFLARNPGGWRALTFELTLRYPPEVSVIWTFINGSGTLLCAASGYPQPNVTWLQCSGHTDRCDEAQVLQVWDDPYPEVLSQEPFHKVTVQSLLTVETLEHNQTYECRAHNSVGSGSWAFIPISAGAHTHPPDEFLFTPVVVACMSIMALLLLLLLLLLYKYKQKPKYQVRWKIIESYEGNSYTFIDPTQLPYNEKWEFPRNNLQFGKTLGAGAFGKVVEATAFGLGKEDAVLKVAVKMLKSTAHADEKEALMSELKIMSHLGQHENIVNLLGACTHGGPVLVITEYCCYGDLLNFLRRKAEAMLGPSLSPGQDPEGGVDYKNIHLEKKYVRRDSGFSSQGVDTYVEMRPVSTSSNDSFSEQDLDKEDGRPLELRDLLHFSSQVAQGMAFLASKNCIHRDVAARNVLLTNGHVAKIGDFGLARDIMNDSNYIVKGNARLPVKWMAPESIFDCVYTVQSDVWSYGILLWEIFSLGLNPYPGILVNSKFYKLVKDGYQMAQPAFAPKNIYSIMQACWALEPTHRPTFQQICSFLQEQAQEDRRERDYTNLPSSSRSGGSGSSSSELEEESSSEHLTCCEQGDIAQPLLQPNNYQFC
T9 sequence (P09769 whole entry): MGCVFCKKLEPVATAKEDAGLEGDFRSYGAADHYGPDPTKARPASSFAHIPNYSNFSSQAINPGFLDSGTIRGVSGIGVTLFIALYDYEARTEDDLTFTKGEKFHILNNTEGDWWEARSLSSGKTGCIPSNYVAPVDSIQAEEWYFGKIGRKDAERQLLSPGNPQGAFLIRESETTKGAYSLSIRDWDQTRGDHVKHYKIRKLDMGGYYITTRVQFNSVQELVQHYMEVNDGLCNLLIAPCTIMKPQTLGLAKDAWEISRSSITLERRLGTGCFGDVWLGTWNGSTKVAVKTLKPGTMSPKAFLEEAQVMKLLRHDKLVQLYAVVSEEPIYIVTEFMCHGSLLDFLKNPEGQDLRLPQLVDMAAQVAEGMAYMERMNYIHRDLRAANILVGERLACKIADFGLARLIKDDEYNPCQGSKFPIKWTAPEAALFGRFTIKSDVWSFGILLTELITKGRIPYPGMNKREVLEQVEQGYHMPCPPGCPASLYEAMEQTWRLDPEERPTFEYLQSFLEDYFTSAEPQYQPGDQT
T5 sequence (O00506 whole entry): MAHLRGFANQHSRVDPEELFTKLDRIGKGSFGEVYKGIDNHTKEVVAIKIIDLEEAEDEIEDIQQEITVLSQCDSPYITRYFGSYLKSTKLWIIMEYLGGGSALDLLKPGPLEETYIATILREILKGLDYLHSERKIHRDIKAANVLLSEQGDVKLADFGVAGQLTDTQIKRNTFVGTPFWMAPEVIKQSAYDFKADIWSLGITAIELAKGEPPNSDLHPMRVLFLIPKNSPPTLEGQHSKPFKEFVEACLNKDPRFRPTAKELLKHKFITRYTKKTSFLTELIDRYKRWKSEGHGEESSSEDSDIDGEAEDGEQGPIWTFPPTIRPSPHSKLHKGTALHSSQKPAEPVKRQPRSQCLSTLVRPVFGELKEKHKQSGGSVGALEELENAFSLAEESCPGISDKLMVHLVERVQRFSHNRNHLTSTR

| SMILES | remaining activity at 1 µM (panel of 442 kinases [1]) | remaining activity at 1 µM (panel of 442 kinases [2]) | remaining activity at 1 µM (panel of 442 kinases [3]) | remaining activity at 1 µM (panel of 442 kinases [4]) | remaining activity at 1 µM (panel of 442 kinases [5]) | remaining activity at 1 µM (panel of 442 kinases [6]) | remaining activity at 1 µM (panel of 442 kinases [7]) | remaining activity at 1 µM (panel of 442 kinases [8]; CDK4-cyclinD1) | remaining activity at 1 µM (panel of 442 kinases [8]; CDK4-cyclinD3) | remaining activity at 1 µM (panel of 442 kinases [9]) | remaining activity at 1 µM (panel of 442 kinases [10]) | further results |
| --- | --- | --- | --- | --- | --- | --- | --- | --- | --- | --- | --- | --- |
| Nc1cc(C(F)(F)F)c(-c2cc(N3CCOCC3)nc(N3CCOCC3)n2)cn1 [Buparlisib] | 100% | 96% | 96% | 100% | 100% | 97% | 71% | 82% | 91% | 100% | 85% | remaining activity at 10 µM (panel of 442 kinases [1]; [11]): 100%; remaining activity at 10 µM (panel of 442 kinases [2]; [11]): 100%; remaining activity at 10 µM (panel of 442 kinases [3]; [11]): 99%; remaining activity at 10 µM (panel of 442 kinases [4]; [11]): 100%; remaining activity at 10 µM (panel of 442 kinases [5]; 10 µM, read-out: YSK1 (% of control at 10 µM)): 100%; remaining activity at 10 µM (panel of 442 kinases [6]; 10 µM, read-out: TSSK1B (% of control at 10 µM)): 100%; remaining activity at 10 µM (panel of 442 kinases [7]; [11]): 46%; remaining activity at 10 µM (panel of 442 kinases [8]; CDK4-cyclinD1): 100%; remaining activity at 10 µM (panel of 442 kinases [8]; CDK4-cyclinD3): 100%; remaining activity at 10 µM (panel of 442 kinases [9]; [11]): 100%; remaining activity at 10 µM (panel of 442 kinases [10]; [11]): 40% |
| COc1ncc(-c2ccc3nccc(-c4ccnnc4)c3c2)cc1NS(=O)(=O)c1ccc(F)cc1F [Omipalisib] | 100% | 100% | 85% | 99% | 91% | 100% | 56% | 100% | 100% | 84% | 100% |  |
| FC(F)c1nc2ccccc2n1-c1nc(N2CCOCC2)nc(N2CCOCC2)n1 [ZSTK474, 2-(difluoromethyl)-1-[4,6-di(4-morpholinyl)-1,3,5-triazin-2-yl]-1H-benzimidazole] | 86% | 93% | 100% | 100% | 83% | 76% | 100% | 90% | 100% | 87% | 90% |  |
| Cn1c(=O)n(-c2ccc(C(C)(C)C#N)cc2)c2c3cc(-c4cnc5ccccc5c4)ccc3ncc21 [Dactolisib, 2-methyl-2-[4-(3-methyl-2-oxo-8-quinolin-3-yl-2,3-dihydroimidazo[4,5-c]quinolin-1-yl)-phenyl] propionitrile] | 68% | 63% | 97% | 100% | 100% | 98% | 89% | 100% | 97% | 81% |  |  |
